Measured values taken from patent EP0007672A1, “Isocyanoalkenes, process and useful intermediates for their preparation, pharmaceutical and fungicidal preparations containing those isocyanoalkenes and the use of the fungicidal preparations in agriculture” (GIST-BROCADES N.V., priority 1978, dated 1980).
Values after ≈ are worked out from the molar mass of the structure shown. Like-named read-outs stand apart in the source and are kept apart here.

How the values were obtained:
Assay in all cases: MIC (Minimum Inhibitory Concentration)
Assay type in all cases: cell-based
Candida albicans = system: Candida albicans
From the text: (§1) In addition they may be used for combatting plant diseases, in particular as fungicides. A list of MIC (Minimum Inhibitory Concentration) values for a number of microorganisms is listed herebelow. The figures in the column headings refer to the compounds prepared according to the experimental examples in comparison with the spectrum of 1-[2-(2,4-dichlorophenyl)-2-{(2,4-dichlorophenyl)-methoxy} -ethyl7-1H-imidazole (better known under the name of miconazole, c.f. Merck Index 9th Ed. page 6047) or natamycin (pimaricin, c.f. Merck Index 9th Ed. page 7233).

Pasteurella multocida = Pasteurella multocida A 723; read-out: MIC values
From the text: as §1

[1] = system: Streptococcus haemolyticus; details: Streptococcus haemolyticus A 1088; read-out: MIC values
From the text: as §1

Trichophyton equinum = system: Trichophyton equinum
From the text: as §1

[2] = system: Trichophyton mentagrophytus
From the text: as §1

Trichophyton quickeaneum = Trichophyton quickeaneum A 2040; read-out: MIC values
From the text: as §1

Trichophyton rubrum = system: Trichophyton rubrum
From the text: as §1

[3] = system: Trichophyton schoenleinii; details: Trichophyton schoenleinii 435-63; read-out: MIC values
From the text: as §1

Trichophyton tonsurans = Trichophyton tonsurans 561-50; read-out: MIC values
From the text: as §1

Trichophyton verrucosum = system: Trichophyton verrucosum
From the text: as §1

Trichophyton violoceum = Trichophyton violoceum 442-62; read-out: MIC values
From the text: as §1

[4] = Candida albicans A 7, read-out: MIC values
[5] = Candida albicans A 3140, read-out: MIC values
[6] = Candida albicans A 3141, read-out: MIC values
[7] = Candida albicans A 3142, read-out: MIC values
[8] = Candida albicans A 3143, read-out: MIC values
[9] = Candida albicans A 3144, read-out: MIC values
[10] = Candida albicans A 3145, read-out: MIC values
[11] = Candida albicans A 3165, read-out: MIC values
[12] = Candida albicans A 3166, read-out: MIC values
[13] = Candida albicans A 3167, read-out: MIC values
[14] = Candida albicans A 3168, read-out: MIC values
[15] = Candida albicans A 3169, read-out: MIC values
[16] = Candida albicans A 3171, read-out: MIC values
[17] = Candida albicans A 3184, read-out: MIC values
[18] = Candida albicans A 3190, read-out: MIC values
[19] = Candida albicans A 3191, read-out: MIC values
[20] = Candida albicans A 3192, read-out: MIC values
[21] = Candida albicans A 3194, read-out: MIC values
[22] = Candida albicans A 3196, read-out: MIC values
[23] = Trichophyton equinum 182-76, read-out: MIC values
[24] = Trichophyton equinum 441-51, read-out: MIC values
[25] = Trichophyton mentagrophytus 367-68, read-out: MIC values
[26] = Trichophyton mentagrophytus 421-67, read-out: MIC values
[27] = Trichophyton mentagrophytus A 3252, read-out: MIC values
[28] = Trichophyton mentagrophytus R 177, read-out: MIC values
[29] = Trichophyton mentagrophytus R 178, read-out: MIC values
[30] = Trichophyton rubrum 218-65, read-out: MIC values
[31] = Trichophyton rubrum 494-62, read-out: MIC values
[32] = Trichophyton rubrum A 810, read-out: MIC values
[33] = Trichophyton verrucosum 134-66, read-out: MIC values
[34] = Trichophyton verrucosum A 2922, read-out: MIC values

Row | SMILES | MIC (Candida albicans; [4]) [µg/mL] | MIC (Candida albicans; [5]) [µg/mL] | MIC (Candida albicans; [6]) [µg/mL] | MIC (Candida albicans; [7]) [µg/mL] | MIC (Candida albicans; [8]) [µg/mL] | MIC (Candida albicans; [9]) [µg/mL] | MIC (Candida albicans; [10]) [µg/mL] | MIC (Candida albicans; [11]) [µg/mL] | MIC (Candida albicans; [12]) [µg/mL] | MIC (Candida albicans; [13]) [µg/mL] | MIC (Candida albicans; [14]) [µg/mL] | MIC (Candida albicans; [15]) [µg/mL] | MIC (Candida albicans; [16]) [µg/mL] | MIC (Candida albicans; [17]) [µg/mL] | MIC (Candida albicans; [18]) [µg/mL] | MIC (Candida albicans; [19]) [µg/mL] | MIC (Candida albicans; [20]) [µg/mL] | MIC (Candida albicans; [21]) [µg/mL] | MIC (Candida albicans; [22]) [µg/mL] | MIC (Pasteurella multocida) [µg/mL] | also measured
1 | [C-]#[N+]C(=C(C)c1cccs1)S(=O)(=O)c1ccc(C)cc1 [Example 17, 1-isocyano-1-(4-toluenesulphonyl)-2-(2-thienyl)-1-propene] | 0.75 (≈ 2.47 µM) | 1.5 (≈ 4.94 µM) | 1.5 (≈ 4.94 µM) | 1.5 (≈ 4.94 µM) | 1.5 (≈ 4.94 µM) | 1.5 (≈ 4.94 µM) | 3 (≈ 9.89 µM) | 1.5 (≈ 4.94 µM) | 1.5 (≈ 4.94 µM) | 1.5 (≈ 4.94 µM) | 3 (≈ 9.89 µM) | 1.5 (≈ 4.94 µM) | 1.5 (≈ 4.94 µM) | 1.5 (≈ 4.94 µM) | 1.5 (≈ 4.94 µM) | 3 (≈ 9.89 µM) | 1.5 (≈ 4.94 µM) | 3 (≈ 9.89 µM) | 1.5 (≈ 4.94 µM) | 3 (≈ 9.89 µM) | MIC [1]: 6 µg/mL (≈ 19.8 µM); MIC (Trichophyton equinum; [23]): > 100 µg/mL; MIC (Trichophyton equinum; [24]): 0.75 µg/mL (≈ 2.47 µM); MIC [2, 25]: 100 µg/mL (≈ 330 µM); MIC [2, 26]: > 100 µg/mL; MIC [2, 27]: 6 µg/mL (≈ 19.8 µM); MIC [2, 28]: > 100 µg/mL; MIC [2, 29]: > 100 µg/mL; MIC (Trichophyton quickeaneum): 6 µg/mL (≈ 19.8 µM); MIC (Trichophyton rubrum; [30]): 6 µg/mL (≈ 19.8 µM); MIC (Trichophyton rubrum; [31]): 6 µg/mL (≈ 19.8 µM); MIC (Trichophyton rubrum; [32]): 12.5 µg/mL (≈ 41.2 µM); MIC [3]: 3 µg/mL (≈ 9.89 µM); MIC (Trichophyton tonsurans): < 0.4 µg/mL; MIC (Trichophyton verrucosum; [33]): 0.75 µg/mL (≈ 2.47 µM); MIC (Trichophyton verrucosum; [34]): 0.4 µg/mL (≈ 1.32 µM); MIC (Trichophyton violoceum): 3 µg/mL (≈ 9.89 µM)
2 | [C-]#[N+]C(=C(CCCC)c1ccccc1)S(=O)(=O)c1ccc(C)cc1 [Example 19, 2-phenyl-1-isocyano-1-(4-toluenesulphonyl)-1-hexene] | 6 (≈ 17.7 µM) | 6 (≈ 17.7 µM) | 6 (≈ 17.7 µM) | 6 (≈ 17.7 µM) | 6 (≈ 17.7 µM) | > 100 | 6 (≈ 17.7 µM) | 6 (≈ 17.7 µM) | 6 (≈ 17.7 µM) | 50 (≈ 147 µM) | 6 (≈ 17.7 µM) | 3 (≈ 8.84 µM) | 3 (≈ 8.84 µM) | 50 (≈ 147 µM) | 6 (≈ 17.7 µM) | > 100 | 6 (≈ 17.7 µM) | 6 (≈ 17.7 µM) | 100 (≈ 295 µM) | > 100 | MIC [1]: > 100 µg/mL; MIC (Trichophyton equinum; [23]): > 100 µg/mL; MIC (Trichophyton equinum; [24]): 3 µg/mL (≈ 8.84 µM); MIC [2, 25]: > 100 µg/mL; MIC [2, 26]: > 100 µg/mL; MIC [2, 27]: > 100 µg/mL; MIC [2, 28]: > 100 µg/mL; MIC [2, 29]: > 100 µg/mL; MIC (Trichophyton quickeaneum): > 100 µg/mL; MIC (Trichophyton rubrum; [30]): > 100 µg/mL; MIC (Trichophyton rubrum; [31]): > 100 µg/mL; MIC (Trichophyton rubrum; [32]): > 100 µg/mL; MIC [3]: > 100 µg/mL; MIC (Trichophyton tonsurans): 0.4 µg/mL (≈ 1.18 µM); MIC (Trichophyton verrucosum; [33]): 3 µg/mL (≈ 8.84 µM); MIC (Trichophyton verrucosum; [34]): 3 µg/mL (≈ 8.84 µM); MIC (Trichophyton violoceum): > 100 µg/mL
3 | [C-]#[N+]C(=C(CCCCC)CCCCC)S(=O)(=O)c1ccc(C)cc1 [Example 26, 1-isocyana-2-pentyl-1-(4-toluenesulphonyl)-1-heptene] | 50 (≈ 144 µM) | 6 (≈ 17.3 µM) | 25 (≈ 71.9 µM) | 25 (≈ 71.9 µM) | 50 (≈ 144 µM) | 100 (≈ 288 µM) | 25 (≈ 71.9 µM) | 50 (≈ 144 µM) | 25 (≈ 71.9 µM) | > 100 | 100 (≈ 288 µM) | 25 (≈ 71.9 µM) | 50 (≈ 144 µM) | 50 (≈ 144 µM) | 50 (≈ 144 µM) | > 100 | 50 (≈ 144 µM) | 50 (≈ 144 µM) | 50 (≈ 144 µM) | 100 (≈ 288 µM) | MIC [1]: > 100 µg/mL; MIC (Trichophyton equinum; [23]): > 100 µg/mL; MIC (Trichophyton equinum; Trichophyton equinum 856-71, read-out: MIC values): 50 µg/mL (≈ 144 µM); MIC [2, 25]: > 100 µg/mL; MIC [2, 26]: 100 µg/mL (≈ 288 µM); MIC [2, 27]: > 100 µg/mL; MIC [2, 28]: > 100 µg/mL; MIC [2, 29]: > 100 µg/mL; MIC ([2]; Trichophyton mentagrophytus RRL 305, read-out: MIC values): > 100 µg/mL; MIC (Trichophyton quickeaneum): > 100 µg/mL; MIC (Trichophyton rubrum; [30]): 100 µg/mL (≈ 288 µM); MIC (Trichophyton rubrum; [31]): 100 µg/mL (≈ 288 µM); MIC (Trichophyton rubrum; [32]): 50 µg/mL (≈ 144 µM); MIC [3]: 100 µg/mL (≈ 288 µM); MIC (Trichophyton tonsurans): 100 µg/mL (≈ 288 µM); MIC (Trichophyton violoceum): 100 µg/mL (≈ 288 µM)
